Values after ≈ are worked out from the molar mass of the structure shown. Bridge positions count the residues as written; N and C are the ends. Peptide text beside a SMILES is read from it. I, II: the chains in the order shown.
How the values were obtained:
S. aureus ATCC25923 = type: cell-based, Staphylococcus aureus; conditions: for MIC: S. aureus ATCC25923, CAMHB, 24 h, 37 °C, duplicate; for MBC: S. aureus ATCC25923, sub-culture on MH agar, 99.9% death
Protocol: (§1) After confirming antibacterial activity, the peptides were tested against gram-positive and gram-negative multidrug-resistant bacteria, including strains of clinical origin. The peptides, p-BthTX-I, des-Lys^12/(p-BthTX-I)2, and Lys^13-(p-BthTX-I)2 were serially diluted (512–1 μM) in cation-adjusted BBL MH II broth (CAMHB; Becton, Dickson and Co., Sparks, MD, USA) as described by CLSI. Bacteria at 5.0 × 10^5 CFU/mL were added to the media and incubated for 24 h at 37 °C. […] Assays were performed in duplicates, and sterile broth was used as the negative control. To determine the minimal bactericidal concentration (MBC), 100 µL from each well of the MIC assay plates that inhibited bacterial growth were sub-cultured onto MH agar (MHA) plates. […] If the ratio of MBC/MIC was >4, the activity of the peptide was considered bacteriostatic, as described previously.

S. aureus SA16 = type: cell-based, Staphylococcus aureus; conditions: S. aureus SA16 (MRSA); for MBC: sub-culture on MH agar, 99.9% death
Protocol: as §1

S. aureus SA88 = type: cell-based, Staphylococcus aureus; conditions: for MIC: S. aureus SA88 (MRSA, daptomycin heteroresistant), CAMHB, 24 h, 37 °C, duplicate; for MBC: S. aureus SA88, sub-culture on MH agar, 99.9% death
Protocol: as §1

S. aureus SA33 = type: cell-based, Staphylococcus aureus; conditions: for MBC: S. aureus SA33, sub-culture on MH agar, 99.9% death
Protocol: as §1

human red blood cells = experiment: Hemolysis assay; type: cell-based; conditions: 1% (v/v) human erythrocytes in Tris-saline pH 7.4, 1 h, 37 °C, absorbance 405 nm, triplicate
Protocol: Peptide hemolysis assays were performed as previously described by Castro et al.. Briefly, freshly prepared human red blood cells (RBCs) were washed three times with 0.01 M Tris-HCl (pH 7.4) containing 0.15 M NaCl (Tris-saline). A suspension of 1% (v/v) erythrocytes was made with packed RBCs resuspended in Tris-saline. Peptides were dissolved in Tris-saline at an initial concentration of […] and serially diluted in the same buffer to determine the concentration that triggered 50% hemolysis (HC50). As the positive control (100% lysis), 1% (v/v) Triton X-100 solution was used. After 1 h of incubation at 37 °C, the samples were centrifuged at 3000× g for 5 min. Then, 100 µL aliquots of the supernatant were transferred to 96-well microplates, and the absorbance was determined at 405 nm. The assay was performed in triplicates.

E. coli ATCC25922 = experiment: MIC, microdilution in MH broth (initial screening); type: cell-based, Escherichia coli; conditions: 24 h, 37 °C, resazurin, triplicate
Protocol: (§2) The minimum inhibitory concentrations (MIC) were determined following the Clinical and Laboratory Standards Institute (CLSI) recommendations. Antibacterial and antifungal activity tests were performed using the microdilution method. For initial screening, peptides were tested against C. albicans ATCC18804, E. coli ATCC25922, and S. aureus ATCC25923. Briefly, bacterial cells in MH broth (80 μL aliquots containing 1.5 × 10^7 CFU) were incubated with synthetic peptides (serial dilution from 512 to 1 μM) dissolved in Milli-Q water. After incubation for 24 h at 37 °C, the microtiter plates were analyzed visually by addition of resazurin. For the antifungal assays, the culture medium was RPMI 1640 buffered with L-glutamine (pH 7.2), 0.165 M morpholinepropanesulfonic acid (MOPS), and 2% glucose. Cell suspensions (final concentration of 1 × 10^3–2.5 × 10^3 CFU/mL) were inoculated on a microdilution plate previously prepared with serially diluted synthetic peptides (128–1 μM). The plates were incubated for 48 h at 37 °C. Each assay was performed in triplicates. Additionally, amphotericin B and fluconazole were used as the control drugs. MIC was defined as the lowest concentration of peptide at which no growth was detected.

K. pneumoniae NDM-1 = type: cell-based, Klebsiella pneumoniae; conditions: for MIC: K. pneumoniae NDM-1, CAMHB, 24 h, 37 °C; for MBC: K. pneumoniae NDM-1, sub-culture on MH agar, 99.9% death
Protocol: as §1

[1] = test system: K. pneumoniae ATCCBAA1705; type: cell-based, Klebsiella pneumoniae; conditions: for MIC: K. pneumoniae ATCCBAA1705 (KPC), CAMHB, 24 h, 37 °C, duplicate; for MBC: K. pneumoniae ATCCBAA1705, sub-culture on MH agar, 99.9% death
Protocol: as §1

Serum stability assay = type: in vitro ADME; conditions: 25% human male serum, 37 °C
Protocol: Crude peptides were purified by semi-preparative HPLC on a Shimadzu system (Tokyo, Japan) using a C18 reversed phase column (10 × 250 mm, Phenomenex, Torrance, CA, USA). Solvent A contained 0.045% trifluoroacetic acid (TFA) in water. Elution was achieved using a linear gradient (5–35%) of solvent B (0.036% TFA in acetonitrile) for 120 min at 5 mL/min. The purity of the peptides was determined by analytical HPLC on a Shimadzu system using a C18 column (4.6 × 150 mm, Phenomenex, Torrance, CA, USA) with a linear gradient of solvent B (5–95%) for 30 min at 1 mL/min. Liquid chromatography-mass spectrometry (LC/MS) was performed using a C18 column (2.0 × 30 mm, Shimadzu) attached to analytical HPLC and an amaZon ion trap mass spectrometer (Bruker Daltonics) using ESI. Peptides were eluted using a linear gradient of solvent B (5–95%) for 15 min at 0.2 mL/min.
Peptide stability assays were performed in diluted serum as previously described with minor modifications. First, 2 mL of 25% human male serum was centrifuged at 3000× g for 10 min; the supernatant was collected and incubated for 15 min at 37 °C. Next, peptides were added to the serum to a final concentration of 100 µM. Then, 200 µL of samples were collected at different time points during the assays, which were performed in duplicate. Analyses were performed by LC/MS and analytical HPLC, as described above.

C. albicans ATCC18804 = experiment: Antifungal MIC, microdilution in RPMI 1640; type: cell-based, Candida albicans; conditions: C. albicans ATCC18804, RPMI 1640, 48 h, 37 °C, peptides 128-1 µM, triplicate
Protocol: as §2

S. epidermidis ATCC35984 = type: cell-based, Staphylococcus epidermidis; conditions: for MIC: S. epidermidis ATCC35984, CAMHB, 24 h, 37 °C, duplicate; for MBC: S. epidermidis ATCC35984, sub-culture on MH agar, 99.9% death
Protocol: as §1

Row | Structure (SMILES) | MIC (S. aureus ATCC25923) [µM] | MBC (S. aureus ATCC25923) [µM] | MBC (S. aureus SA16) [µM] | MIC (S. aureus SA88) [µM] | MBC (S. aureus SA88) [µM] | MBC (S. aureus SA33) [µM] | HC50 (peptide concentration that produced 50% hemolysis) (human red blood cells) [µM] | MIC (E. coli ATCC25922) [µM] | MIC (K. pneumoniae NDM-1) [µM] | MBC (K. pneumoniae NDM-1) [µM] | MIC [1] [µM] | MBC [1] [µM] | Incubation time after which the peptide was completely degraded in human serum (Serum stability assay; peptide 100 µM, analytical HPLC (C18) and LC/MS, duplicate) [min] | MIC (C. albicans ATCC18804) [µM] | MIC (S. epidermidis ATCC35984) [µM] | MBC (S. epidermidis ATCC35984) [µM] | MIC (S. aureus SA16; CAMHB, 24 h, 37 °C) [µM] | MIC (S. aureus SA33; S. aureus SA33 (MRSA, tigecycline resistant), CAMHB, 24 h, 37 °C) [µM] | Incubation time in human serum after which further degradation products were observed (Serum stability assay; mass spectrometry, data not shown) [h] | Incubation time in human serum after which the peptide remained intact (stable) (Serum stability assay; product formed from (p-BthTX-I)2 100 µM, LC/MS and HPLC) [h]
1 | CC(C)C[C@H](NC(=O)[C@H](Cc1c[nH]cn1)NC(=O)[C@H](Cc1ccc(O)cc1)NC(=O)[C@H](CCCNC(=N)N)NC(=O)[C@H](Cc1ccc(O)cc1)NC(=O)[C@H](CCCCN)NC(=O)[C@@H](N)CCCCN)C(=O)N[C@@H](CCCCN)C(=O)N1CCC[C@H]1C(=O)N[C@@H](Cc1ccccc1)C(=O)N[C@@H](CSSC[C@H](NC(=O)[C@H](Cc1ccccc1)NC(=O)[C@@H]1CCCN1C(=O)[C@H](CCCCN)NC(=O)[C@H](CC(C)C)NC(=O)[C@H](Cc1c[nH]cn1)NC(=O)[C@H](Cc1ccc(O)cc1)NC(=O)[C@H](CCCNC(=N)N)NC(=O)[C@H](Cc1ccc(O)cc1)NC(=O)[C@H](CCCCN)NC(=O)[C@@H](N)CCCCN)C(=O)N[C@@H](CCCCN)C(=O)N[C@@H](CCCCN)C(=O)O)C(=O)N[C@@H](CCCCN)C(=O)N[C@@H](CCCCN)C(=O)O [(p-BthTX-I)2] | 512 (≈ 1780 µg/mL) | 512 (≈ 1780 µg/mL) | 512 (≈ 1780 µg/mL) | 256 (≈ 890 µg/mL) | 256 (≈ 890 µg/mL) | 512 (≈ 1780 µg/mL) | >128 | 4 (≈ 13.9 µg/mL) | 256 (≈ 890 µg/mL) | 512 (≈ 1780 µg/mL) | 256 (≈ 890 µg/mL) | 512 (≈ 1780 µg/mL) | 30 | >128 | 16 (≈ 55.6 µg/mL) | 64 (≈ 222 µg/mL) | – | – | – | –
2 | CC(C)C[C@H](NC(=O)[C@H](Cc1c[nH]cn1)NC(=O)[C@H](Cc1ccc(O)cc1)NC(=O)[C@H](CCCNC(=N)N)NC(=O)[C@H](Cc1ccc(O)cc1)NC(=O)[C@H](CCCCN)NC(=O)[C@@H](N)CCCCN)C(=O)N[C@@H](CCCCN)C(=O)N1CCC[C@H]1C(=O)N[C@@H](Cc1ccccc1)C(=O)N[C@@H](CSSC[C@H](NC(=O)[C@H](Cc1ccccc1)NC(=O)[C@@H]1CCCN1C(=O)[C@H](CCCCN)NC(=O)[C@H](CC(C)C)NC(=O)[C@H](Cc1c[nH]cn1)NC(=O)[C@H](Cc1ccc(O)cc1)NC(=O)[C@H](CCCNC(=N)N)NC(=O)[C@H](Cc1ccc(O)cc1)NC(=O)[C@H](CCCCN)NC(=O)[C@@H](N)CCCCN)C(=O)O)C(=O)O [des-Lys^12/Lys^13-(p-BthTX-I)2] (I: H-KKYRYHLKPFC-OH / II: H-KKYRYHLKPFC-OH; disulfide I:11-II:11) | 128 (≈ 379 µg/mL) | 256 (≈ 759 µg/mL) | 128 (≈ 379 µg/mL) | 256 (≈ 759 µg/mL) | 512 (≈ 1520 µg/mL) | 256 (≈ 759 µg/mL) | >128 | 16 (≈ 47.4 µg/mL) | 256 (≈ 759 µg/mL) | 512 (≈ 1520 µg/mL) | 32 (≈ 94.8 µg/mL) | 64 (≈ 190 µg/mL) | – | >128 | 32 (≈ 94.8 µg/mL) | 32 (≈ 94.8 µg/mL) | 128 (≈ 379 µg/mL) | 128 (≈ 379 µg/mL) | 30 | 24
